According to ChEMBL document CHEMBL1129255, “Identification of a retinoic acid receptor alpha subtype specific agonist” (J Med Chem, 1996):

Experiments:
[1] = biological target: T1, Retinoic acid receptor gamma (Homo sapiens, UniProt P13631); experiment: Binding affinity for baculovirus-expressed Retinoic acid receptor RAR gamma
T1 sequence (P13631 whole entry): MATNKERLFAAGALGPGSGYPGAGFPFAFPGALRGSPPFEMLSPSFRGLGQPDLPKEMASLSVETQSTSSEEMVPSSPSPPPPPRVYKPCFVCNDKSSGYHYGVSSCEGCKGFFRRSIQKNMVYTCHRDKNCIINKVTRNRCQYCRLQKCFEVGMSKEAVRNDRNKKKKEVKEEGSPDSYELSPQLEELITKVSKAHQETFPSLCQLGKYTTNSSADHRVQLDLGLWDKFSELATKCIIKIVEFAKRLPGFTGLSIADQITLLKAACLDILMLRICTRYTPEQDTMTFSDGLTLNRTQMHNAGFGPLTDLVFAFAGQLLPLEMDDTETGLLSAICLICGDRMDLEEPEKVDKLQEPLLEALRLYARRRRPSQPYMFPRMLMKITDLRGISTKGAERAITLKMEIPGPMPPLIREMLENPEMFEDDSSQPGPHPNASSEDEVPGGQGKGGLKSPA

[2] = biological target: T2, Retinoic acid receptor alpha (Homo sapiens, UniProt P10276); experiment: Binding affinity for baculovirus-expressed Retinoic acid receptor RAR alpha
T2 sequence (P10276 whole entry): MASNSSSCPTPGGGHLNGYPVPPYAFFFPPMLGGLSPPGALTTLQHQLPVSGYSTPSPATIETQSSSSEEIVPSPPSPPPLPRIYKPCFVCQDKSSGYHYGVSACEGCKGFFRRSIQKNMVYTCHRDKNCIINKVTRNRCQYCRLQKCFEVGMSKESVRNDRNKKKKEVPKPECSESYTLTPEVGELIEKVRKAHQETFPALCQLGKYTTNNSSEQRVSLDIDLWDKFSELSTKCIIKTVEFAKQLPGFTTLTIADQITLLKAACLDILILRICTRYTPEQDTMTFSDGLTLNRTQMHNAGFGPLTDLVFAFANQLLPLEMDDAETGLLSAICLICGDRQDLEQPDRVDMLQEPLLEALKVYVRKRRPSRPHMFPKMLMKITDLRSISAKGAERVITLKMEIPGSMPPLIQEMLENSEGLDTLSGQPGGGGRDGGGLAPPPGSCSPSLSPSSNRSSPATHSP

[3] = biological target: T3, Retinoic acid receptor beta (Homo sapiens, UniProt P10826); experiment: Binding affinity for baculovirus-expressed Retinoic acid receptor RAR beta
T3 sequence (P10826 whole entry): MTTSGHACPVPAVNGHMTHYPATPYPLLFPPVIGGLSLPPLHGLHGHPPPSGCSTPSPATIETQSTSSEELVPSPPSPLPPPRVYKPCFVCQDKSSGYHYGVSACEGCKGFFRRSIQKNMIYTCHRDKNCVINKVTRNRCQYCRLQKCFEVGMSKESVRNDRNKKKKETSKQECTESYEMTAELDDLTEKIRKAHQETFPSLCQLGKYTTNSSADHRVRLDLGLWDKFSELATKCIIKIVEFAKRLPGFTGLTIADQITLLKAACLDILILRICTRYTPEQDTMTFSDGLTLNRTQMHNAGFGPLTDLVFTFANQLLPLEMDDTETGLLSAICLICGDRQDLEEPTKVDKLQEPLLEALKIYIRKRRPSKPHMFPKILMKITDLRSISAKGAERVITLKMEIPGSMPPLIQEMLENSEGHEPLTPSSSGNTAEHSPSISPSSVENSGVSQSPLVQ

Row | Structure (SMILES) | Kd [1] [µM] | Kd [2] [nM] | Kd [3] [µM]
1 | CC1(C)CCC(C)(C)c2c1cc(C(=O)Nc1ccc(C(=O)O)c(F)c1)c(O)c2Br | > 30 | 4.4 | 3.04
2 | CC1(C)CCC(C)(C)c2c1cc(C(=O)Nc1cc(F)c(C(=O)O)c(F)c1)c(O)c2Br | > 30 | 8.4 | 17.4
